According to PubChem BioAssay (NCI):
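The compound was tested at five concentrations on cells cultured in 96-well plates, with a 48-hour exposure period. GI50 marks 50% less growth. TGI: total growth inhibition.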

These molecules were tested on RXF 393 renal (assay: NCI tumour cell line growth inhibition, 48 h).

Compound | TGI [µM] | GI50 [µM]
COC(=O)C(=Cc1cc(OC)c(OC)c(OC)c1-c1cc2c(cc1C1(C)OCCS1)OCO2)C(=O)OC (configuration not stated) | > 100 | 
C#CC1/C(=C\C(=O)OC)CCCC1O (configuration not stated) | > 100 | 
COc1ccc(-c2nnc3n(C)c(=O)c4ccccc4n23)cc1N | > 100 | 2.59
CN(C)C1CCN(C(=O)c2ccc(NC(=O)Nc3ccc(-c4nc(N5CCOCC5)c5cccn5n4)cc3)cc2)CC1 | 0.604 | 0.088
COc1ccc(OCC(=O)O)c2c1CCCC2=O | > 100 | 
Cc1nc(Nc2ccc(Cl)cc2)sc1C(=O)NNC(=S)NN | 27.6 | 
CCOC(=O)N[C@H]1CCc2cc(OC)c(OC)c(OC)c2-c2ccc(SC)c(=O)cc21 | > 100 | 
COc1ccc2c(c1OCC(=O)O)C(=O)C(CCC(=O)O)CC2 (configuration not stated) | > 100 | 
COC1C(OC(=S)Nc2ccccc2)c2ccccc2N1C(C)=O (configuration not stated) | > 100 | 
CC1=Cc2cccc(C)c2C(=O)C1=O | 8.85 | 
Cc1ccc(C)c(NC(=O)c2cccc([N+](=O)[O-])c2O)c1 | 37.8 | 
COC(=O)c1ccc2c(c1)C(=O)c1c-2n(CCCN=[N+]=[N-])c(=O)c2cc(OC)c(OC)cc12 | > 100 | > 100
NC1CCN(Cc2ccccc2)CC1 | > 100 | 8.22
N#CC(C(=O)/C(=N\NC(N)=O)C(C#N)c1ccc(Cl)cc1)c1ccc(Cl)cc1 (configuration not stated) | > 100 | 
CC(C)C1=Cc2ccc3c(c2C(=O)C1=O)CCCC3(C)C | 3.86 | 
Nc1ncn([C@@H]2O[C@H](CO)[C@@H](O)[C@H]2O)c(=O)n1 | 4.64 | 0.346
CSc1nc(SC)c2c(C#N)[nH]nc2n1 | > 100 | 
COc1c(O)c2c(=O)cc3c4c5c(cc(=O)c6c(O)c(OC)c(CC(C)O)c(c(c1CC(C)O)c24)c65)OCO3 (configuration not stated) | 4.03 | 

Compound | TGI [µM] | GI50 [µM]
COc1ccc(CCN(C)C2CCC(C#N)(c3ccc(OC)c(OC)c3)CC2)cc1OC (configuration not stated) | > 100 | 
C=CCC1(c2ccc(OC)cc2)C=CC(=O)CC1 (configuration not stated) | > 100 | 
COC(=O)[C@]12CC[C@@H](C)[C@H](C)[C@@H]1C1=CC[C@@H]3[C@@]4(C)C[C@@H](O)[C@H](O)[C@@](C)(CO)C4=CC[C@@]3(C)[C@]1(C)CC2 | 34 | 16.9
COc1ccc(C(=O)Nc2ccc(O)c(=O)cc2)cc1 | 37.3 | 
Cc1nc(N)sc1N=Nc1ccccc1Br | 43.6 | 
CCOC(=O)c1nc2c(OC)nn(O)cc-2c1[N+](=O)[O-] | 29.3 | 
C/C(CC(=O)Nc1ccc(C)c(C)c1)=N\N(c1ccccc1)c1ccccc1 | > 100 | 
COC(=O)/C(=N\NC(N)=S)C(C(=O)OC)C(=O)C(=O)Nc1ccc(C)cc1 (configuration not stated) | > 100 | 
O=C(OC1CCC(=C2SCCCS2)[C@H]1C1SCCCS1)c1ccccc1 (some centres not stated) | > 100 | 
O=C1CCC2(c3ccc(Cl)cc3)Nc3cc(Cl)ccc3N12 (configuration not stated) | 24.6 | 
CC1(C)COC(c2cccc3c2C(=O)c2cccc(Cl)c2-3)=N1 | 68.2 | 
CN(C)CCC(/C=C/c1ccccc1)=N\Nc1ccccc1 | 18.6 | 
C/C(N=NC(=S)N1CC2CCC(CC2)C1)=C1\C=CC=CN1O | 69.3 | 
CCOC(=O)c1ccc(/C(C)=N/NC(N)=S)cc1 | > 100 | 
c1ccc2c(OCCSCCCCCCCCCCSCCOc3cccc4ccccc34)cccc2c1 | > 100 | 
Cc1cc2c(=O)c3ccccc3[nH]c2c(C(N)=O)c1C | > 100 | 
O=C(Nc1cccc(C(F)(F)F)c1)c1ccc(NC2=C(Cl)C(=O)N(Cc3ccc(Cl)cc3Cl)C2=O)cc1 | 28.3 | 4.76
CN1CCC(=O)/C(=C/c2ccccc2)C1 | 26.8 | 

What follows are molecules tested on OVCAR-5 ovarian (assay: NCI tumour cell line growth inhibition, 48 h).

Compound | TGI [µM] | GI50 [µM]
COC(=O)C(=Cc1cc(OC)c(OC)c(OC)c1-c1cc2c(cc1C1(C)OCCS1)OCO2)C(=O)OC (configuration not stated) | > 100 | 
C#CC1/C(=C\C(=O)OC)CCCC1O (configuration not stated) | > 100 | 
CC12CCC(=O)C[C@H]1CCC(OC=O)C2Br (some centres not stated) | > 100 | 
COc1ccc(-c2nnc3n(C)c(=O)c4ccccc4n23)cc1N | > 100 | 9.26
CN(C)C1CCN(C(=O)c2ccc(NC(=O)Nc3ccc(-c4nc(N5CCOCC5)c5cccn5n4)cc3)cc2)CC1 | 16.1 | 0.0521
COc1cnc2c(c1)C(=O)c1c-2n(CCCNC2=NCCS2)c(=O)c2cc([N+](=O)[O-])ccc12 | 3.59 | 1.04
